# System: keloid scar
# Assay: Intralesional injection of the pharmaceutical composition into keloid scars of patients
# Assay type: in vivo, human
# Conditions: injected into the keloid scar; general statement, 'often'
# Procedure: A pharmaceutical composition was prepared by mixing 1.0 mg of high molecular weight hyaluronic acid (0.1 cc of HYALGAN®, sodium hyaluronate) with 7.5 units of hyaluronidase (HYLENEX® recombinant human hyaluronidase), which was injected into the keloid scar. […] Erythema and tenderness of the keloid scar was also resolved.
# A pharmaceutical composition was prepared as in Example 1, and injected into the keloid scar.
# The patient also reported a sharp, piercing pain from the keloid scar. A pharmaceutical composition was prepared as in Example 1, and injected into the keloid scar.
# A fourth patient had two keloid scars, one on each earlobe. A pharmaceutical composition was prepared as in Example 1, and injected into each of the keloid scars. […] Some itching was reported by the patient.
# All four patients responded to the treatment. Overall, there was significant reduction in keloid scar size, with an average of approximately a 22% reduction in length, a 37% reduction in width, and a 45% reduction in height. Even more striking was great reduction in density and hardness of the keloid scar tissue, leaving a soft pliable skin sack after treatment.
# Only a few mild adverse reactions were reported. Two patients reported very mild itching from the keloid scars. Some stinging from the injection was also reported. No significant pain or swelling was reported.
substance,measurement,value
low molecular weight hyaluronic acid,shrinkage of keloid scar volume,≥ 50%

# Reference: US20140328826A1, “PRODUCT AND METHOD FOR TREATING KELOID SCARS, HYPERTROPHIC SCARS AND BURN SCARS WITH CONTRACTURE” (COLE Research & Design, Inc., priority 2013, published 2014)
